Series [1] concerns A375 cells. Kind of series: A375 (BRAF V600E) antiproliferative activity experiment (CellTiter-glo). The conditions noted are these: Homo sapiens, A-375, 120 h, cultured 5 days. Format: cell-based. The protocol: Experimental Embodiment 3: A375 (BRAF^V600E) Antiproliferative Activity Experiment
Cell line A375 (purchased from Procell). DMEM culture medium, penicillin/streptomycin antibiotics were purchased from Vicente, and fetal bovine serum was purchased from Biosera. CellTiter-glo (cell viability chemiluminescence detection reagent) reagent was purchased from Promega.
A375 cells were seeded in a white 96 well plate with […] of cell suspension per well containing 2000 of A375 cells. The cell plate was placed in a carbon dioxide incubator and cultured overnight. The compound to be tested was diluted 3-fold to the 9th concentration with a pipette, that is, diluted from 6 mmol to 0.91 μmol, and a double-duplicate experiment was set-up, 78 μmol of culture medium was added to the middle plate, then 2 μmol of gradient dilution compound per well was transferred to the middle plate according to the corresponding position, and 20 μmol per well was mixed and transferred to the cell plate. The concentration of the compound transferred to the cell plate ranged from 30 μmol to 4.57 nmol. The cell plate was placed in a carbon dioxide incubator and cultured for 5 days. Another cell plate was prepared, and the signal value was read as the maximum value (max value in the following equation) on the day of administration to participate in data analysis, 25 μmol of cell viability chemiluminescence detection reagent was added to each well of the cell plate and incubated at room temperature for 10 minutes to stabilize the luminescence signal. A multi-marker analyzer reading was used. After the incubation of the cell plate added with the compound was finished, 25 μmol of cell viability chemiluminescence detection reagent was added to each well of the cell plate and incubated at room temperature for 10 minutes to stabilize the luminescence signal. A multi-marker analyzer reading was used.
(§1) The equation (Sample−Min)/(Max−Min)*100% was used to convert the original data into inhibition rate, and the IC50 value could be obtained by curve fitting with four parameters (obtained by “log (inhibitor) vs. response—variable slope” mode in GraphPad Prism).
Background: ATP-based viability assays read luminescence as a measure of living cells.

Series [2] concerns ERK phosphorylation in Calu-6 cells. Kind of series: Calu-6 (Kras Q61K) ERK phosphorylation inhibition experiment (HTRF). It counts as cell-based, human. To be noted: Homo sapiens, Calu-6, 1 h, 1 hour incubation with compound. The protocol: Experimental Embodiment 5: Calu-6 (Kras^Q61K) ERK Phosphorylation Inhibition Experiment
1) the cells were resuscitated and cultured to logarithmic growth phase, digested with trypsin, seeded in 96-well plates with 30000 cells per well, and incubated overnight in an incubator.
2) 1 μL of gradient compound dissolved with DMSO was added to a 96-well plate and placed back into an incubator to incubate for 1 hour.
3) The cell plates were removed out, and the culture medium was poured off, and 50 μL of cell lysate (with 1% blocking peptide) was added to each well.
4) The lysate plate was mixed at 500 rpm and incubated and lysed at room temperature for 30 minutes.
5) The antibody mixture in the kit was prepared at a ratio of 1:1:38.
6) 16 μL of cell lysate was transferred to the HTRF plate per well, then the 4 μL of the configured antibody mixture was added thereto.
7) After incubation overnight, the plate was read with Envision, and the fitted curve was obtained according to the ratio (the ratio of fluorescence intensity of […]) and the EC50 was calculated according to the four-parameter fitting formula Y=Bottom+(Top−Bottom)/(1+10^((Log EC50−X)*HillSlope)) of Graphpad.

The nature of series [3]: Pharmacokinetics of single intravenous and oral administration in mice. Format: in vivo. The conditions noted are these: for Vd / clearance / half-life: single intravenous administration, 0.5 mg/kg/day; for Vd: read-out: Apparent distribution volume Vdss; for clearance: read-out: Clearance rate Cl; for half-life: read-out: Half-life (T1/2) (converted); for Tmax / Cmax: single oral administration, 50 mg/kg/day; for Tmax: read-out: Peak time Tmax; for Cmax: read-out: Maximum plasma drug concentration Cmax. Here is the method:
(§2) Experimental Embodiment 6: Pharmacokinetics Study of Single Intravenous and Oral Administration in Mice and Dogs
(§3) This experiment was aimed to study the pharmacokinetics of the test compound in mice and dogs in vivo after a single oral administration of the compound.
(§4) After intravenous or oral administration, blood samples were collected and the actual blood collection time was recorded. After the blood sample was collected, the sample was immediately transferred to a labeled centrifuge tube containing K2-EDTA, and then the plasma was taken after centrifugation. The plasma was transferred to a precooled centrifuge tube, quickly frozen in dry ice, and stored in an ultra-low temperature refrigerator at −70±10° C. until LC-MS/MS analysis.
(§5) Pharmacokinetic software was used to process the plasma drug concentration data of the compound with […] model. The peak concentration (Cmax) and peak time (Tmax), as well as the end time of quantification, were obtained directly from the plasma drug concentration-time graph. The following pharmacokinetic parameters were calculated by logarithmic linear trapezoidal method: half-life (T1/2), apparent distribution volume (Vdss) and clearance rate (Cl), and the area under the time-plasma concentration curve from 0 to the end time point (AUC0-last).

In series [4] the test system is Colo205 cells. Kind of series: Colo205 (BRAF V600E) antiproliferative activity experiment (CellTiter-glo). Format: cell-based. The conditions noted are these: Homo sapiens, COLO 205, 72 h, cultured 3 days. The protocol: Experimental Embodiment 4: Colo205 (BRAF^V600E) Antiproliferative Activity Experiment
Cell line COLO205 (purchased from Procell), RPMI1640 culture medium, penicillin/streptomycin antibiotics were purchased from Vicente, and fetal bovine serum was purchased from Biosera. CellTiter-glo (cell viability chemiluminescence detection reagent) reagent was purchased from Promega.
COLO205 cells were seeded in a white 96-well plate with […] of cell suspension per well containing 3000 of COLO205 cells. The cell plate was placed in a carbon dioxide incubator and cultured overnight. The compound to be tested was diluted 3-fold to the 9th concentration with a pipette, that is, diluted from […], and a double-duplicate experiment was set-up. 78 μmol of culture medium was added to the middle plate, then 2 μmol of gradient dilution compound per well was transferred to the middle plate according to the corresponding position, and 20 μmol of per well was mixed and transferred to the cell plate. The concentration of the compound transferred to the cell plate ranged from 1 μmol to 0.15 nmol. The cell plate was placed in a carbon dioxide incubator and cultured for 3 days. Another cell plate was prepared, and the signal value was read as the maximum value (max value in the following equation) on the day of administration to participate in data analysis. 25 μmol of cell viability chemiluminescence detection reagent was added to each well of the cell plate and incubated at room temperature for 10 minutes to stabilize the luminescence signal. A multi-marker analyzer reading was used. After the incubation of the cell plate added with the compound was finished, 25 μmol of cell viability chemiluminescence detection reagent was added to each well of the cell plate and incubated at room temperature for 10 minutes to stabilize the luminescence signal. A multi-marker analyzer reading was used.
as §1

The nature of series [5]: Pharmacokinetics of single intravenous and oral administration in dogs. It counts as in vivo. To be noted: dog. Here is the method:
as §2, §3, §4, §5

The values below come from patent US11718610B2, “Compounds containing benzosultam” (MEDSHINE DISCOVERY INC., priority 2020, dated 2023).

pIC50: −log10 of the molar value. Where two headings read alike, the source gives them in different places.

Usually pIC50 stands for the IC50 on a negative log10 scale, so that one unit is a factor of ten. The term Tmax denotes the time from dosing to the highest level. Turning to `COc1cc(F)cc([C@@H](CO)NC(=O)[C@@H](C)N2Cc3ccc(-c4nc(NC5CCOCC5)ncc4Cl)cc3S2(=O)=O)c1` [Compound 1], the pIC50 in series [1] was 7.82. The pIC50 in series [2] was 8.23. Also, in series [3] (mouse, plasma), the Vd stood at 0.4 L/kg, the clearance came out at 10.3 mL/min/kg, the half-life is 1.16 h and the Tmax was found to be 1 h. In addition, the Cmax in series [3] was 73.4 µM.

In general, bioavailability refers to dose-corrected exposure relative to a reference, in per cent. In the case of `COc1cc(F)cc([C@@H](CO)NC(=O)[C@@H](C)N2Cc3ccc(-c4nc(NC5CCOCC5)ncc4Br)cc3S2(=O)=O)c1` [Compound 3], the pIC50 in series [1] is 7.89. The pIC50 in series [4] was 7.80. In addition, the pIC50 in series [2] was 8.40. For the same molecule, the Cmax in series [3] (mouse, plasma, po) is 156 µM. In series [3] (mouse, plasma), the Vd is 0.656 L/kg, the clearance came to 19 mL/min/kg, the half-life was 2.18 h and the Tmax amounted to 1 h. Moreover, in series [5] (intravenous injection, 2 mg/kg/day), the Apparent distribution volume was 0.112 L/kg. For the same molecule, in series [5] (oral, 10 mg/kg/day), the “Maximum plasma drug concentration” value came to 26700 nmol/L and the Peak time was found to be 3.00 h. Moreover, the clearance in series [5] (plasma, intravenous injection, 2 mg/kg/day, read-out: Clearance rate) worked out at 1.34 mL/min/kg. Besides, in series [5] (plasma, intravenous injection, 2 mg/kg/day, read-out: Half-life (T1/2) (converted)), the half-life was 4.3 h. In series [5] (plasma, oral 10 mg/kg/day vs intravenous 2 mg/kg/day), the bioavailability was 59.8%.

`[2H]C1([2H])CC(Nc2ncc(Cl)c(-c3ccc4c(c3)S(=O)(=O)N([C@H](C)C(=O)N[C@H](CO)c3cc(F)cc(OC)c3)C4)n2)CC([2H])([2H])O1` [Compound 9] gave a pIC50 in series [1] of 7.85. The molecule also gave a pIC50 in series [4] of 7.85. In addition, in series [2], the pIC50 is 8.40. In addition, the Cmax in series [3] (mouse, plasma, po) turned out to be 124 µM. Besides, in series [3] (mouse, plasma), the Vd was determined as 0.297 L/kg, the clearance is 7.03 mL/min/kg, the half-life was 1.26 h and the time to peak (Tmax) turned out to be 1.5 h.

For the molecule `COc1cc(F)cc([C@@H](CO)NC(=O)[C@@H](C)N2Cc3ccc(-c4nc(N[C@H]5CCOC[C@H]5F)ncc4Cl)cc3S2(=O)=O)c1` [Compound 11], the pIC50 in series [1] is 7.80. In series [4], this molecule showed a pIC50 of 7.80. In addition, the pIC50 in series [2] is 8.19. In addition, the Cmax in series [3] (mouse, plasma, po) worked out at 157 µM. In series [3] (mouse, plasma), the Vd was found to be 0.422 L/kg, the clearance was 13.8 mL/min/kg, the half-life was 1.17 h and the Tmax is 0.75 h.
